In experiment [1] the test system is Human immunodeficiency virus. Briefly: Antiviral activity against HIV infected in human MT4 cells up to 100 uM by multicycle infectivity assay. In kind it is functional, organism-based.
In the next experiment the target is T1, Ribonuclease H1 (Homo sapiens, UniProt O60930).
T1 sequence (O60930 whole entry): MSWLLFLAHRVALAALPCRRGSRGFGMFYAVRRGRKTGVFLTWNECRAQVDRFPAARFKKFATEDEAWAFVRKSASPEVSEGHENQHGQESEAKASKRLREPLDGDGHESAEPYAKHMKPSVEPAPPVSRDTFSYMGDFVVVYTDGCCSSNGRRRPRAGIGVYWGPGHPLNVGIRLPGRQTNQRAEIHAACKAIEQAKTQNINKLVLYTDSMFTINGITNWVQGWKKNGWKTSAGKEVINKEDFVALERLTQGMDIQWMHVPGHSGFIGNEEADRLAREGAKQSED
The experiment is described as follows: Inhibition of human RNase H assessed as substrate cleavage by fluorescence assay.

Experiment [2] addresses Ribonuclease H1 (Homo sapiens) (UniProt O60930). Briefly: Inhibition of human recombinant ribonuclease H1 in presence of Mg2+.

Results on eight compounds are retold here after ChEMBL document CHEMBL1153542, “RNase H active site inhibitors of human immunodeficiency virus type 1 reverse transcriptase: design, biochemical activity, and structural information” (J Med Chem, 2009).

Calls of active or inactive are those of the source. The rule behind the calls is not given here.

On to `COC(=O)c1nc(Cc2ccccc2)nc(O)c1O`, for which the outcome in experiment [1] was inactive. For the compound `O=C(O)c1nc(Cc2ccc(Cl)c(Cl)c2)nc(O)c1O`, the outcome in experiment [1] was inactive.

For `O=C(O)c1nc(CCc2ccccc2)nc(O)c1O`, the outcome in experiment [1] was inactive. Take `O=C(O)c1nc(Cc2ccccc2)nc(O)c1O`: the outcome in experiment [1] was inactive. In the case of `O=C(O)c1nc(Cc2c(Br)sc3ccc(Cl)cc23)nc(O)c1O`, in experiment [1], the result was inactive.

By IC50 is commonly meant the concentration that gives 50% inhibition. On to `O=c1[nH]c2ccccc2c(=O)n1O`, for which the concentration for half-maximal inhibition (IC50) on Ribonuclease H1 was found to be 5.9 µM. Further, in experiment [1], the result was inactive. Regarding `O=C(O)c1nc(-c2ccccc2)nc(O)c1O`, the IC50 in experiment [2] was greater than 100 µM. For the same compound, in experiment [1], the result was inactive. For `COc1ccc(Cc2nc(O)c(O)c(C(=O)O)n2)cc1Br`, in experiment [1], the result was inactive.
